From PMC9296983, “Synthesis and HDAC inhibitory activity of pyrimidine-based hydroxamic acids” (Beilstein Journal of Organic Chemistry, 2022)

Legend:
[1] = target: T1, HDAC8 (Homo sapiens, UniProt Q9BY41); assay: HDAC enzyme activity assay (fluorogenic, Boc-Lys(trifluoroacetyl)-AMC substrate), HDAC8; type: biochemical; details: recombinant HDAC8; BOC-LYS-(TFA)-AMC as substrate, 100 mM TRIS, 300 mM KCl, pH 8.0 buffer, 30 °C
T1 construct: made in house
T1 sequence (Q9BY41 1-377): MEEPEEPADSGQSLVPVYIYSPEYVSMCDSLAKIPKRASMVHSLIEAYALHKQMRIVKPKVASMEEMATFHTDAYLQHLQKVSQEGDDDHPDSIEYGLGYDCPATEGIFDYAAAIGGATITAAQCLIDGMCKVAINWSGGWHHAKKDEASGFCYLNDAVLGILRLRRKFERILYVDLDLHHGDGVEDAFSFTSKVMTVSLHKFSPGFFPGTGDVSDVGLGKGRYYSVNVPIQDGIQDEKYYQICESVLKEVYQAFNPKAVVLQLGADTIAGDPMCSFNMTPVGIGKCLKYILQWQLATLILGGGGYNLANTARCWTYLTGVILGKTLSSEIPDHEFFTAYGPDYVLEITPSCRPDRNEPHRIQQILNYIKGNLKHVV
Procedure: (§1) Compounds 12–18 and 25–31 were tested as inhibitors of HDAC4 and HDAC8 isoforms according to the procedures described previously. […]. […]
(§2) HDAC enzyme activity assay
Recombinant HDAC4 and 8 were produced as described in [3]. […]
HDAC in a black 96-well microtiter half -area plate (Greiner) for 60 min at 30 °C. Subsequentl y the reaction was started by the addition of 20 μM Boc -Lys(trifluoroacetyl) -AMC (Bachem) as a substrate.
(§3) After incubation for 60 min at 30 °C, the reaction was stopped by the addition of 1.7 μM SATFMK.
(§4) The deacetylated substrate was transformed into a flu orescent product by the addition of 0.4 mg/m L trypsin (Applichem). The release of AMC was followed in a microplate reader (PheraStar Plus, BMG Labtech) at 450 nm (λ Ex = 350 nm) and correlated to enzyme activity. Dose–response curves were produced with GraphPad Prism and fitted to a four parameters logistic function to obtain IC50 values […]
(§5) in which EA is the enzyme activity at a given inhibitor concentration x; Emax and E0 are the enzyme activities determined at zero and complete inhibition, respectively; IC50 represents the inhibitor concentration at which half the enzyme molecules are inhibited; h is the slope of the curve. […]
(§6) (1 picture or pasted object on this page, not shown here)

[2] = target: T2, HDAC4 (Homo sapiens, UniProt P56524); assay: HDAC enzyme activity assay (fluorogenic, Boc-Lys(trifluoroacetyl)-AMC substrate), HDAC4; type: biochemical; details: recombinant HDAC4; BOC-LYS-(TFA)-AMC as substrate, 100 mM TRIS, 300 mM KCl, pH 8.0 buffer, 30 °C
T2 construct: made in house
T2 sequence (P56524 whole entry, species assumed): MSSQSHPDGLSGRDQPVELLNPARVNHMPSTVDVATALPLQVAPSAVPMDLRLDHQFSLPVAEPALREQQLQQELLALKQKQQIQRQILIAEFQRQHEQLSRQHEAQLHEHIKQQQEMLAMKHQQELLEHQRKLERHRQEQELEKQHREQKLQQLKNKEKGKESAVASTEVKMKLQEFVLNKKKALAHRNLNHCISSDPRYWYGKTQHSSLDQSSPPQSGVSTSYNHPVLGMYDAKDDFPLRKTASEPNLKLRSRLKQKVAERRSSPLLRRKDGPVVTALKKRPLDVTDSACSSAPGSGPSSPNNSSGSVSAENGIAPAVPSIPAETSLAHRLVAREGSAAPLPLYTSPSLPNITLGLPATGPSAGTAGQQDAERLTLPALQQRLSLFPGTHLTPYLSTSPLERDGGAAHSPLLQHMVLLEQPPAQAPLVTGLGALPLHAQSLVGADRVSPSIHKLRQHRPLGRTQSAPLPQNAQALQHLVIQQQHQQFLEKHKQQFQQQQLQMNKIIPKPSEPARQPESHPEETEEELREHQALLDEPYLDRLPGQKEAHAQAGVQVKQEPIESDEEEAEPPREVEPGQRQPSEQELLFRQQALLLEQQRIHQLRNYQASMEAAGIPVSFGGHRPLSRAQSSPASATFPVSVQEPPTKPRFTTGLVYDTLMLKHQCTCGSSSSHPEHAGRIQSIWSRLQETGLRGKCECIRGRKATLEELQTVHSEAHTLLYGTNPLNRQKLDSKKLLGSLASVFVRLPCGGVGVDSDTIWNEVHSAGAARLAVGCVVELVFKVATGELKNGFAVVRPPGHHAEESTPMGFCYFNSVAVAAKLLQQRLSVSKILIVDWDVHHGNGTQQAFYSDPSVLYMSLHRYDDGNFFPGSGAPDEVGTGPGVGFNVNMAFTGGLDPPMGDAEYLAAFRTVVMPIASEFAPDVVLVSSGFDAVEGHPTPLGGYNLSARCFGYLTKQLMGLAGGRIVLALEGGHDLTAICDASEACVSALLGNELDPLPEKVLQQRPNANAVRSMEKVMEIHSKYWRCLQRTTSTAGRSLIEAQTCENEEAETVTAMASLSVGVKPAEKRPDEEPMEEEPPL
Procedure: as §1, §2
Recombinant HDAC4 and 8 were produced as described in [3]. Serial dilutions of the inhibitor in the assay buffer (25 mM Tris -HCl, pH 8.0, 75 mM KCl, 0.001 % Pluronic F-127) were incubated with HDAC in a black 96-well microtiter half -area plate (Greiner) for 60 min at 30 °C. Subsequentl y the reaction was started by the addition of 20 μM Boc -Lys(trifluoroacetyl) -AMC (Bachem) as a substrate.
as §3, §4, §5, §6

melting point	IC50 [1]	IC50 [2]	Compound
190 to 191 °C (dec.)	60 µM	–	Cc1cc(OCC(=O)NO)nc(O)n1 [compound 18]
–	1.2 µM	16.6 µM	CCCc1c(C)nc(SC)nc1OCCCCCC(=O)NO [compound 29, N-hydroxy-6-[6-methyl-2-(methylthio)-5-propylpyrimidin-4-yloxy]hexanamide]
175 to 176 °C	13 µM	–	CCSc1nc(C)cc(OCC(=O)NO)n1 [compound 13]
185 to 187 °C	> 35 µM	> 35 µM	CCCc1c(C)nc(SC)n(CC(=O)NO)c1=O [compound 30, N-Hydroxy-[6-methyl-2-(methylthio) -4-oxo-5-propylpyrimidin-3(4H)-yl]acetamide]
112 to 113 °C	2.05 µM	> 50 µM	CSc1nc(C)cc(OCCCCCC(=O)NO)n1 [compound 26]
150 to 151 °C	5.65 µM	> 50 µM	CSc1nc(C)cc(OCCCC(=O)NO)n1 [compound 25]
177 to 179 °C	15 µM	–	C=CCNc1nc(C)cc(OCC(=O)NO)n1 [compound 14]
125 to 127 °C	2.4 µM	> 35 µM	CCCc1c(C)nc(SC)nc1OCCCC(=O)NO [compound 28]
182 to 184 °C	28 µM	38 µM	CSc1nc(C)cc(OCC(=O)NO)n1 [compound 12]
144 to 146 °C	1.4 µM	38 µM	CCCc1c(C)nc(SC)nc1OCC(=O)NO [compound 27]
178 to 180 °C	13 µM	–	Cc1cc(OCC(=O)NO)nc(N2CCCC2)n1 [compound 17]
168 to 170 °C	14 µM	–	Cc1cc(OCC(=O)NO)nc(NCc2ccccc2)n1 [compound 15]
192 to 194 °C	35 µM	–	Cc1cc(OCC(=O)NO)nc(N(C)C)n1 [compound 16]
133 to 135 °C	> 35 µM	> 35 µM	CCCc1c(C)nc(SC)n(CCCC(=O)NO)c1=O [compound 31, N-Hydroxy-4-[6-methyl-2-(methylthio) -4-oxo-5-propylpyrimidin-3(4H)-yl]butanamide]
